{"source": "paper PMC7673538", "about": "(PLoS Biology, 2020)", "assay_in_all_cases": "microbe, parasite or virus in culture", "key": {"[1]": {"tested_on": "EV-A71", "assay_type": "cell-based, enterovirus A71"}, "[2]": {"tested_on": "CV-B3", "assay_type": "cell-based, coxsackievirus B3"}, "[3]": {"tested_on": "PV-1", "assay_type": "cell-based, poliovirus 1"}, "[4]": {"tested_on": "CV-A24", "assay_type": "cell-based, coxsackievirus A24", "settings": "Enterovirus C, CVA24, HeLa R19, read-out: EC50 CV-A24"}, "[5]": {"tested_on": "CV-A24v", "assay_type": "cell-based, coxsackievirus A24v"}, "[6]": {"tested_on": "EV-D68", "assay_type": "cell-based, enterovirus D68"}}, "note": "Values joined by “and” are separate entries in the source; they are usually repeats but may differ in a detail not shown here. Equal entries are not always repeated. Where two headings read alike, the source gives them in different places.", "data": [{"smiles": "O=C(c1cc[nH]c1)N(Cc1ccc(F)cc1)c1ccccc1", "note": "[Compound 12b, N-(4-Fluorobenzyl)-N-phenyl-1H-pyrrole-3-carboxamide]", "values": [{"measurement": "Figure 7 dose-response raw data, EV-A71 (triplicate values)", "setting": "[1]; Concentration 0.0046 µM", "value": "8.524 and 14.1813 and 13.8349"}, {"measurement": "Figure 7 dose-response raw data, EV-A71 (triplicate values)", "setting": "[1]; Concentration 0.0137 µM", "value": "8.178 and 10.6023 and 11.4104"}, {"measurement": "Figure 7 dose-response raw data, EV-A71 (triplicate values)", "setting": "[1]; Concentration 0.0412 µM", "value": "8.755 and 10.1405 and 13.8349"}, {"measurement": "Figure 7 dose-response raw data, EV-A71 (triplicate values)", "setting": "[1]; Concentration 0.1235 µM", "value": "8.6396 and 9.794 and 10.7177"}, {"measurement": "Figure 7 dose-response raw data, EV-A71 (triplicate values)", "setting": "[1]; Concentration 0.3704 µM", "value": "31.7298 and 16.0285 and 26.5345"}, {"measurement": "Figure 7 dose-response raw data, EV-A71 (triplicate values)", "setting": "[1]; Concentration 1.1111 µM", "value": "89.9407 and 116.561 and 102.065"}, {"measurement": "Figure 7 dose-response raw data, EV-A71 (triplicate values)", "setting": "[1]; Concentration 3.3333 µM", "value": "91.1267 and 117.088 and 97.8476"}, {"measurement": "Figure 7 dose-response raw data, EV-A71 (triplicate values)", "setting": "[1]; Concentration 11.1111 µM", "value": "100.747 and 119.064 and 107.468"}, {"measurement": "Figure 7 dose-response raw data, EV-A71 (triplicate values)", "setting": "[1]; Concentration 33.3333 µM", "value": "107.747 and 119.064 and 117.468"}, {"measurement": "Figure 7 dose-response raw data, EV-A71 (triplicate values)", "setting": "[1]; Concentration 100 µM", "value": "110.747 and 119.064 and 107.468"}, {"measurement": "EC50", "setting": "[1]; Enterovirus A, EVA71, HeLa R19, read-out: Table in Figure 7A, EV-A71, AVERAGE", "value": 490, "unit": "nM"}, {"measurement": "Figure 7 dose-response raw data, CV-B3 (triplicate values)", "setting": "[2]; Concentration 0.001 µM", "value": "12.7273 and 16.4436 and 14.7652"}, {"measurement": "Figure 7 dose-response raw data, CV-B3 (triplicate values)", "setting": "[2]; Concentration 0.0046 µM", "value": "88.2521 and 78.519 and 79.7121"}, {"measurement": "Figure 7 dose-response raw data, CV-B3 (triplicate values)", "setting": "[2]; Concentration 0.0137 µM", "value": "101.732 and 101.506 and 105.007"}, {"measurement": "Figure 7 dose-response raw data, CV-B3 (triplicate values)", "setting": "[2]; Concentration 0.0412 µM", "value": "102.861 and 101.167 and 103.426"}, {"measurement": "Figure 7 dose-response raw data, CV-B3 (triplicate values)", "setting": "[2]; Concentration 0.1235 µM", "value": "99.9247 and 100.263 and 102.748"}, {"measurement": "Figure 7 dose-response raw data, CV-B3 (triplicate values)", "setting": "[2]; Concentration 0.3704 µM", "value": "101.957 and 103.877 and 102.635"}, {"measurement": "Figure 7 dose-response raw data, CV-B3 (triplicate values)", "setting": "[2]; Concentration 1.1111 µM", "value": "101.393 and 99.9247 and 103.426"}, {"measurement": "Figure 7 dose-response raw data, CV-B3 (triplicate values)", "setting": "[2]; Concentration 3.3333 µM", "value": "102.974 and 100.151 and 104.555"}, {"measurement": "Figure 7 dose-response raw data, CV-B3 (triplicate values)", "setting": "[2]; Concentration 10 µM", "value": "101.167 and 95.9721 and 104.668"}, {"measurement": "EC50", "setting": "[2]; Enterovirus B, CVB3, HeLa R19, read-out: Table in Figure 7A, CV-B3, AVERAGE", "value": 2.9, "unit": "nM"}, {"measurement": "EC50", "setting": "[2]; Enterovirus B, CVB3, HeLa R19, read-out: Table in Figure 7A, CV-B3, exp1-exp3", "value": 2.98, "unit": "nM"}, {"measurement": "EC50", "setting": "[2]; read-out: Table in Figure 7A, CV-B3, exp1-exp3", "value": "3.2 nM and 2.55 nM"}, {"measurement": "Figure 7 dose-response raw data, PV-1 (triplicate values)", "setting": "[3]; Concentration 0.0046 µM", "value": "11.045 and 11.5939"}, {"measurement": "Figure 7 dose-response raw data, PV-1 (triplicate values)", "setting": "[3]; Concentration 0.0137 µM", "value": "11.045 and 11.5939"}, {"measurement": "Figure 7 dose-response raw data, PV-1 (triplicate values)", "setting": "[3]; Concentration 0.0412 µM", "value": "11.045 and 11.8683 and 12.5543"}, {"measurement": "Figure 7 dose-response raw data, PV-1 (triplicate values)", "setting": "[3]; Concentration 0.1235 µM", "value": "9.9474 and 11.3195 and 12.0055"}, {"measurement": "Figure 7 dose-response raw data, PV-1 (triplicate values)", "setting": "[3]; Concentration 0.3704 µM", "value": "13.3775 and 12.0055 and 11.7311"}, {"measurement": "Figure 7 dose-response raw data, PV-1 (triplicate values)", "setting": "[3]; Concentration 1.1111 µM", "value": "20.2378 and 15.8472 and 16.3961"}, {"measurement": "Figure 7 dose-response raw data, PV-1 (triplicate values)", "setting": "[3]; Concentration 3.3333 µM", "value": "109.849 and 103.263 and 104.772"}, {"measurement": "Figure 7 dose-response raw data, PV-1 (triplicate values)", "setting": "[3]; Concentration 11.1111 µM", "value": "100.535 and 102.561 and 105.184"}, {"measurement": "Figure 7 dose-response raw data, PV-1 (triplicate values)", "setting": "[3]; Concentration 33.3333 µM", "value": "94.7887 and 93.7377 and 106.219"}, {"measurement": "Figure 7 dose-response raw data, PV-1 (triplicate values)", "setting": "[3]; Concentration 100 µM", "value": "94.2632 and 96.1025 and 105.824"}, {"measurement": "EC50", "setting": "[3]; Enterovirus C, HeLa R19, read-out: Table in Figure 7A, Polio, AVERAGE", "value": 1390, "unit": "nM"}, {"measurement": "EC50", "setting": "[3]; Enterovirus C, HeLa R19, read-out: Table in Figure 7A, Polio, exp1-exp3", "value": 1760, "unit": "nM"}, {"measurement": "EC50", "setting": "[3]; read-out: Table in Figure 7A, Polio, exp1-exp3", "value": "1420 nM and 990 nM"}, {"measurement": "EC50", "setting": "[4]", "value": "1330 ± 240", "unit": "nM"}, {"measurement": "Figure 7 dose-response raw data, CV-A24v (triplicate values)", "setting": "[5]; Concentration 0.0046 µM", "value": "11.045 and 11.5939"}, {"measurement": "Figure 7 dose-response raw data, CV-A24v (triplicate values)", "setting": "[5]; Concentration 0.0137 µM", "value": "14.0988 and 16.3593 and 16.4783"}, {"measurement": "Figure 7 dose-response raw data, CV-A24v (triplicate values)", "setting": "[5]; Concentration 0.0412 µM", "value": "14.0988 and 16.3593 and 16.4783"}, {"measurement": "Figure 7 dose-response raw data, CV-A24v (triplicate values)", "setting": "[5]; Concentration 0.1235 µM", "value": "14.8126 and 12.909 and 19.2147"}, {"measurement": "Figure 7 dose-response raw data, CV-A24v (triplicate values)", "setting": "[5]; Concentration 0.3704 µM", "value": "14.8126 and 13.6228 and 22.1892"}, {"measurement": "Figure 7 dose-response raw data, CV-A24v (triplicate values)", "setting": "[5]; Concentration 1.1111 µM", "value": "14.8126 and 13.6228 and 22.1892"}, {"measurement": "Figure 7 dose-response raw data, CV-A24v (triplicate values)", "setting": "[5]; Concentration 3.3333 µM", "value": "106.3 and 102.374 and 110.232"}, {"measurement": "Figure 7 dose-response raw data, CV-A24v (triplicate values)", "setting": "[5]; Concentration 11.1111 µM", "value": "105.473 and 108.334 and 112.487"}, {"measurement": "Figure 7 dose-response raw data, CV-A24v (triplicate values)", "setting": "[5]; Concentration 33.3333 µM", "value": "98.3206 and 97.0611 and 97.1756"}, {"measurement": "Figure 7 dose-response raw data, CV-A24v (triplicate values)", "setting": "[5]; Concentration 100 µM", "value": "82.2926 and 86.3728 and 89.8506"}, {"measurement": "EC50", "setting": "[5]; Coxsackievirus, HeLa R19, read-out: Table in Figure 7A, CVA24v, AVERAGE", "value": 1340, "unit": "nM"}, {"measurement": "EC50", "setting": "[5]; Coxsackievirus, HeLa R19, read-out: Table in Figure 7A, CVA24v, exp1-exp3", "value": 1110, "unit": "nM"}, {"measurement": "EC50", "setting": "[5]; read-out: Table in Figure 7A, CVA24v, exp1-exp3", "value": "1230 nM and 1670 nM"}, {"measurement": "Figure 7 dose-response raw data, EV-D68 (triplicate values)", "setting": "[6]; Concentration 0.001 µM", "value": "11.1333 and 12.4782 and 12.9265"}, {"measurement": "Figure 7 dose-response raw data, EV-D68 (triplicate values)", "setting": "[6]; Concentration 0.0046 µM", "value": "12.1793 and 12.9265 and 15.0187"}]}]}
